# Columns and labels:
# K. pneumoniae = test: MIC of carbapenem by Etest (Example 2); assay type: cell-based, Klebsiella pneumoniae
# Description: (§1) All strains had previously been characterized for their β-lactamase content at the molecular level. Minimum inhibitory concentration of carbapenem were determined using the Etest® (AB bioMérieux, Solna, Sweden) and results were recorded according to US guidelines (CLSI), as updated in 2011.
# K. ozonae = test: MIC of carbapenem by Etest (Example 2); assay type: cell-based; conditions: K. ozonae KPC-3, n=1
# Description: as §1
# E. sakazaki = test: MIC of carbapenem by Etest (Example 2); assay type: cell-based; conditions: ESBL + decreased membrane permeability; E. sakazaki CTX-M-15, n=1
# Description: as §1
# Salmonella spp. = test: MIC of carbapenem by Etest (Example 2); assay type: cell-based; conditions: Salmonella spp. KPC-2, n=1
# Description: as §1
# C. freundii [1] = test: MIC of carbapenem by Etest (Example 2); assay type: cell-based, Citrobacter freundii
# Description: as §1
# E. aerogenes = test: MIC of carbapenem by Etest (Example 2); assay type: cell-based, Enterobacter aerogenes
# Description: as §1
# E. asburiae = test: MIC of carbapenem by Etest (Example 2); assay type: cell-based, Enterobacter asburiae; conditions: E. asburiae IMI-2, n=1
# Description: as §1
# E. coli [2] = test: MIC of carbapenem by Etest (Example 2); assay type: cell-based, Escherichia coli
# Description: as §1
# M. morganii = test: MIC of carbapenem by Etest (Example 2); assay type: cell-based, Morganella morganii; conditions: Plasmid mediated AmpC or chromosomal AmpC + decreased membrane permeability; M. morganii Overexpressed cephalosporinase, n=2
# Description: as §1
# E. cloacae [3] = test: MIC of carbapenem by Etest (Example 2); assay type: cell-based, Enterobacter cloacae
# Description: as §1
# E. coli [4] = test: MIC by Etest on Mueller-Hinton agar (Example 1); assay type: cell-based, Escherichia coli; conditions: for MIC: Escherichia coli
# Description: (§2) Prior to performing the method of the invention, susceptibility testings were performed by determining Minimum Inhibitory Concentration (MIC) values by the Etest® (AB bioMérieux; Solna, Sweden) on Mueller-Hinton agar plates at 37° C. and results of susceptibility testing were recorded according to the Clinical and Laboratory Standards Institute (CLSI) guidelines as modified in June 2010 (18). The breakpoints for imipenem are S≦1 μg/ml (susceptibility) and R≧4 μg/ml (resistant). As for those for ertapenem, they are S≦0.25 μg/ml and R≧1 μg/ml (see Tables 1 and 2).
# P. rettgeri [5] = test: MIC of carbapenem by Etest (Example 2); assay type: cell-based, Proteus rettgeri
# Description: as §1
# S. marcescens = test: MIC of carbapenem by Etest (Example 2); assay type: cell-based, Serratia marcescens
# Description: as §1
# E. cloacae [6] = test: MIC by Etest on Mueller-Hinton agar (Example 1); assay type: cell-based; conditions: Enterobacter cloacae
# Description: as §2
# P. stuartii = test: MIC by Etest on Mueller-Hinton agar (Example 1); assay type: cell-based; conditions: Providencia stuartii, NDM-1 + OXA-1 + CMY-6
# Description: as §2
# C. freundii [7] = test: MIC by Etest on Mueller-Hinton agar (Example 1); assay type: cell-based; conditions: Citrobacter freundii; C. freundii STE (13); NDM-1 + OXA-1 + OXA-9 + OXA-10 + CTX-M-15 + TEM-1
# Description: as §2
# P. mirabilis [8] = test: MIC by Etest on Mueller-Hinton agar (Example 1); assay type: cell-based; conditions: Proteus mirabilis, plasmid mediated cephalosporinase ACC-1
# Description: as §2
# P. rettgeri [9] = test: MIC by Etest on Mueller-Hinton agar (Example 1); assay type: cell-based, Proteus rettgeri; conditions: Providencia rettgeri; P. rettgeri RAP (9); OXA-181 + OXA-1
# Description: as §2
# P. mirabilis [10] = test: MIC of carbapenem by Etest (Example 2); assay type: cell-based, Proteus mirabilis; conditions: Plasmid mediated AmpC or chromosomal AmpC + decreased membrane permeability; P. mirabilis ACC-1, n=1
# Description: as §1
structure (smiles),measurement,setting,value
"C[C@@H](O)[C@H]1C(=O)N2C(C(=O)O)=C(S[C@@H]3CN[C@H](C(=O)Nc4cccc(C(=O)O)c4)C3)[C@H](C)[C@H]12 [ERT, ertapenem]",MICs range,"K. pneumoniae; ESBL + decreased membrane permeability, K. pneumoniae SHV-2a, n=1",2 mg/L
same,MICs range,"K. pneumoniae; ESBL + decreased membrane permeability, K. pneumoniae SHV-28, n=1",4 mg/L
same,MICs range,"K. pneumoniae; ESBLs, K. pneumoniae CTX-M-3, n=1",0.12 mg/L
same,MICs range,"K. pneumoniae; ESBLs, K. pneumoniae CTX-M-14, n=1",0.12 mg/L
same,MICs range,"K. pneumoniae; ESBLs, K. pneumoniae CTX-M-15, n=3",0.12 mg/L
same,MICs range,"K. pneumoniae; K. pneumoniae IMP-1, n=5",2 to 4 mg/L
same,MICs range,"K. pneumoniae; K. pneumoniae IMP-8, n=2",0.5 to 1^ mg/L
same,MICs range,"K. pneumoniae; K. pneumoniae NDM-4, n=1",>32 mg/L
same,MICs range,"K. pneumoniae; K. pneumoniae OXA-181, n=2",2 to 4 mg/L
same,MICs range,"K. pneumoniae; K. pneumoniae VIM-19, n=1",16 mg/L
same,MICs range,"K. pneumoniae; Plasmid mediated AmpC or chromosomal AmpC + decreased membrane permeability, K. pneumoniae DHA-1, n=1",>32 mg/L
same,MICs range,"K. pneumoniae; Plasmid mediated AmpC or chromosomal AmpC + decreased membrane permeability, K. pneumoniae DHA-2, n=1",0.5 mg/L
same,MICs range,K. ozonae,>32 mg/L
same,MICs range,E. sakazaki,1.5 mg/L
same,MICs range,Salmonella spp.,1 mg/L
same,MICs range,"C. freundii [1]; C. freundii NDM-1, n=1",>32 mg/L
same,MICs range,"C. freundii [1]; ESBL + decreased membrane permeability, C. freundii TEM-3, n=1",8 mg/L
same,MICs range,"E. aerogenes; E. aerogenes KPC-2, n=1",>32 mg/L
same,MICs range,"E. aerogenes; Plasmid mediated AmpC or chromosomal AmpC + decreased membrane permeability, E. aerogenes Overexpressed cephalosporinase, n=1",4 mg/L
same,MICs range,E. asburiae,>32 mg/L
same,MICs range,"E. coli [2]; E. coli IMP-1, n=2",3 to 4 mg/L
same,MICs range,"E. coli [2]; E. coli IMP-8, n=1",8 mg/L
same,MICs range,"E. coli [2]; E. coli OXA-48, n=6",0.5 to 16 mg/L
same,MICs range,"E. coli [2]; E. coli VIM-1, n=2",0.38 to 1.5 mg/L
same,MICs range,"E. coli [2]; E. coli VIM-2, n=2",0.5 to 1.5 mg/L
same,MICs range,"E. coli [2]; E. coli VIM-19, n=1",16 mg/L
same,MICs range,"E. coli [2]; ESBLs, E. coli CTX-M-1, n=1",0.12 mg/L
same,MICs range,"E. coli [2]; ESBLs, E. coli CTX-M-3, n=1",0.12 mg/L
same,MICs range,"E. coli [2]; ESBLs, E. coli CTX-M-14, n=2",0.12 mg/L
same,MICs range,"E. coli [2]; ESBLs, E. coli CTX-M-15, n=2",0.12 mg/L
same,MICs range,"E. coli [2]; ESBLs, E. coli VEB-1, n=1",0.12 mg/L
same,MICs range,"E. coli [2]; Plasmid mediated AmpC or chromosomal AmpC + decreased membrane permeability, E. coli ACC-1, n=1",0.12 mg/L
same,MICs range,"E. coli [2]; Plasmid mediated AmpC or chromosomal AmpC + decreased membrane permeability, E. coli CMY-2, n=1",0.12 mg/L
same,MICs range,"E. coli [2]; Plasmid mediated AmpC or chromosomal AmpC + decreased membrane permeability, E. coli CMY-10, n=1",0.38 mg/L
same,MICs range,"E. coli [2]; Plasmid mediated AmpC or chromosomal AmpC + decreased membrane permeability, E. coli DHA-1, n=1",0.12 mg/L
same,MICs range,"E. coli [2]; Plasmid mediated AmpC or chromosomal AmpC + decreased membrane permeability, E. coli Extended spectrum cephalosporinase, n=1",0.12 mg/L
same,MICs range,"E. coli [2]; Plasmid mediated AmpC or chromosomal AmpC + decreased membrane permeability, E. coli Overexpressed cephalosporinase, n=1",>32 mg/L
same,MICs range,M. morganii,0.12 mg/L
same,MICs range,"E. cloacae [3]; E. cloacae GES-5, n=1",>32 mg/L
same,MICs range,"E. cloacae [3]; E. cloacae IMP-1, n=12",>32 mg/L
same,MICs range,"E. cloacae [3]; E. cloacae IMP-8, n=2",0.5 to 1^ mg/L
same,MICs range,"E. cloacae [3]; E. cloacae KPC-2, n=7",1.5 to 32 mg/L
same,MICs range,"E. cloacae [3]; E. cloacae NDM-1, n=1",16 mg/L
same,MICs range,"E. cloacae [3]; E. cloacae NMC-A, n=1",>32 mg/L
same,MICs range,"E. cloacae [3]; E. cloacae OXA-48, n=3",0.5 to 16 mg/L
same,MICs range,"E. cloacae [3]; ESBLs, E. cloacae CTX-M-15, n=3",0.12 mg/L
same,MICs range,"E. cloacae [3]; ESBLs, E. cloacae VEB-1, n=1",0.12 mg/L
same,MICs,"E. coli [4]; E. coli Ec13 SYD (23), plasmid mediated cephalosporinase CMY-2",0.06 µg/mL
same,MICs,"E. coli [4]; E. coli J53 (29), wild-type",0.06 µg/mL
same,MICs,"E. coli [4]; E. coli VMC (24), plasmid mediated cephalosporinase CMY-10",0.06 µg/mL
same,MIC,"E. coli [4]; E. coli 271 AUS (12), NDM-1 + CTX-M-15 + TEM-1",8 µg/mL
same,MIC,"E. coli [4]; E. coli 5649 GEN, NDM-1 + OXA-1 + CMY-30 + TEM-1",32 µg/mL
same,MIC,"E. coli [4]; E. coli (18), ESBL CTX-M-14",0.06 µg/mL
same,MIC,"E. coli [4]; E. coli (20), ESBL VEB-1",0.06 µg/mL
same,MIC,"E. coli [4]; E. coli ALL, NDM-1 + OXA-1 + OXA-2 + CTX-M-15 + TEM-1",8 µg/mL
same,MIC,"E. coli [4]; E. coli BOU, OXA-48 + CTX-M-15",1.5 µg/mL
same,MIC,"E. coli [4]; E. coli COL (2), KPC-2",0.5 µg/mL
same,MIC,"E. coli [4]; E. coli DIH, VIM-19",2 µg/mL
same,MIC,"E. coli [4]; E. coli DIN, KPC",> 32 µg/mL
same,MIC,"E. coli [4]; E. coli FOR, ESBL CTX-M-15",0.06 µg/mL
same,MIC,"E. coli [4]; E. coli HAN (7), OXA-48",1.5 µg/mL
same,MIC,"E. coli [4]; E. coli MAD (14), VIM-1 + CTX-M-3",0.5 µg/mL
same,MIC,"E. coli [4]; E. coli MAD, IMP-1",3 µg/mL
same,MIC,"E. coli [4]; E. coli PSP, KPC-2",2 µg/mL
same,MIC,"E. coli [4]; E. coli RIC, NDM-1 + OXA-1 + OXA-10 + CMY-16",8 µg/mL
same,MICs range,"P. rettgeri [5]; P. rettgeri NDM-1, n=1",0.5 mg/L
same,MICs range,"P. rettgeri [5]; P. rettgeri OXA-181, n=1",1 mg/L
same,MICs range,"S. marcescens; S. marcescens IMP-1, n=2",>32 mg/L
same,MICs range,"S. marcescens; S. marcescens IMP-11, n=1",>32 mg/L
same,MICs range,"S. marcescens; S. marcescens KPC-2, n=2",>32 mg/L
same,MICs range,"S. marcescens; S. marcescens SME-1, n=1",4 mg/L
same,MICs range,"S. marcescens; S. marcescens SME-2, n=1",4 mg/L
same,MICs range,"S. marcescens; S. marcescens VIM-2, n=1",>32 mg/L
same,MIC,"E. cloacae [6]; E. cloacae 2185, ESBL OXA-163",0.19 µg/mL
same,MIC,"E. cloacae [6]; E. cloacae (1), KPC-2",6 µg/mL
same,MIC,"E. cloacae [6]; E. cloacae (17), ESBL CTX-M-15",0.19 µg/mL
same,MIC,"E. cloacae [6]; E. cloacae ARF (25), overexpression of chromosomal cephalosporinase AmpC",0.5 µg/mL
same,MIC,"E. cloacae [6]; E. cloacae BLA, overexpression of chromosomal cephalosporinase AmpC",0.5 µg/mL
same,MIC,"E. cloacae [6]; E. cloacae CON (26), overexpression of chromosomal cephalosporinase AmpC",0.75 µg/mL
same,MIC,"E. cloacae [6]; E. cloacae IR38, NDM-1 + CTX-M-15",> 32 µg/mL
same,MIC,"E. cloacae [6]; E. cloacae TUR (6), OXA-48 + SHV-5",1 µg/mL
same,MIC,"E. cloacae [6]; E. cloacae, ESBL VEB-1",0.19 µg/mL
same,MIC,P. stuartii,> 32 µg/mL
same,MIC,C. freundii [7],> 32 µg/mL
same,MIC,P. mirabilis [8],0.19 µg/mL
same,MIC,P. rettgeri [9],2 µg/mL
same,MICs range,P. mirabilis [10],0.12 mg/L

# From patent US9340819B2, “Method for detecting the presence of carbapenemase-producing bacteria in a sample” (priority 2011, dated 2016)
